Reference: patent US7235557B2, “Compounds and their uses” (MGI GP, Inc., priority 2000, dated 2007)
Several values for one entry are separate records, joined by “and”; a condition that tells them apart may be missing. Equal entries are not always repeated. Where two headings read alike, the source gives them in different places.

Tests used:
focal cerebral ischemia = experiment: Focal cerebral ischemia (MCA cauterization with temporary bilateral CCA occlusion), infarct volume; assay type: in vivo, male Long-Evans rats; conditions: 24 h, mean±SD
Description: Focal cerebral ischemia is produced by cauterization of the right distal MCA (middle cerebral artery) with bilateral temporary common carotid artery occlusion in male Long-Evans rats for 90 minutes. All procedures performed on the animals are approved by the University Institutional Animal Care and Use Committee of the University of Pennsylvania. A total of 42 rats (weights: 230–340 g) obtained from Charles River were used in this study. The animals fasted overnight with free access to water prior to the surgical procedure.
Two hours prior to MCA occlusion, varying amounts (control, n=14; 5 mg/kg, n=7; 10 mg/kg, n=7; 20 mg/kg, n=7; and 40 mg/kg, n=7) of the compound, 3,4-dihydro-5-[4-(1-piperidinyl)-butoxy]-1(2H)-isoquinolinone (“DPQ”) were dissolved in dimethyl sulfoxide (DMSO) using a sonicator. A volume of 1.28 ml/kg of the resulting solution was injected intraperitoneally into […].
Focal cerebral ischemia was produced by cauterization of the distal portion of the right MCA with bilateral temporary common carotid artery (CCA) occlusion by the procedure of Chen et al., “A Model of Focal Ischemic Stroke in the Rat: Reproducible Extensive Cortical Infarction”, Stroke 17:738–43 (1986) and/or Liu et al., “Polyethylene Glycol-conjugated Superoxide Dismutase and Catalase Reduce Ischemic Brain Injury”, Am. J. Physiol. 256:H589–93 (1989), both of which are hereby incorporated by reference.
Specifically, bilateral CCA's were isolated, and loops made from polyethylene (PE-10) catheter were carefully passed around the CCA's for later remote occlusion. The incision made previously for placement of the laser doppler probe was extended to allow observation of the rostral end of the zygomatic arch at the fusion point using a dental drill, and the dura mater overlying the MCA was cut. […] The burr hole was covered with a small piece of Gelform, and the wound was sutured to maintain the brain temperature within the normal or near-normal range.
After 90 minutes of occlusion, the carotid loops were released, the tail arterial catheter was removed, and all of the wounds were sutured. Gentamicin sulfate (10 mg/ml) was topically applied to the wounds to prevent infection. […]
Two hours after MCA occlusion, the animals were given the same doses of the PARP inhibitor as in the pre-treatment. […] To avoid artifacts due to edema, the damaged area was calculated by subtracting the area of the normal tissue in the hemisphere ipsilateral to the stroke from the area of the hemisphere contralateral to the stroke, by the method of Swanson et al., “A Semiautomated Method for Measuring Brain Infarct Volume”, J. Cereb. […] The total volume of infarction was calculated by summation of the damaged volume of the brain slices.

[1] = tested on: infarct size caused by ischemia and reperfusion of the heart; conditions: rabbits, cited from earlier work
[2] = tested on: MSU crystal induced neutrophil migration; experiment: MSU crystal-induced neutrophil recruitment (peritonitis, gout model); assay type: in vivo, Swiss albino mice
Description: Male outbread Swiss albino mice (20–22 g body weight) were purchased from Banton and Kingsman (T.O. stain; Hull, Humberside) and maintained on a standard chow pellet diet with tap water ad libitum and a 12:00 h light/dark cycle. All animals were housed for 1 week prior to experimentation to allow body weight to reach 28–30 g.
1,11b-dihydrobenzopyrano[4,3,2-de]isoquinolin-1-one, as an example PARP inhibitor, was dissolved in 100% DMSO at room temperature at a concentration of 45 mg in 2 ml. The compound was then injected into the peritoneal cavity, so as each mouse received a single dose corresponding to 45 mg/2 ml/kg (e.g. 60 μl for a mouse of 30 g). Control mice received DMSO at 2 ml/kg i.p. A third group of mice which were left untreated were added to control for potential effects of the vehicle. The study involved therefore, the following three groups: group A, untreated mice, n=6, group B, DMSO-treated mice, n=8, and group C, mice treated with 1,11b-dihydrobenzopyrano[4,3,2-de]isoquinolin-1-one, n=8.
MSU crystal-induced neutrophil recruitment was tested as follows. In all cases, mice were treated 1 h after the treatment noted above, with MSU crystals. A homogenous suspension of MSU crystals was obtained by a 30 min rotation. Peritonitis was induced by injection of 3 mg MSU crystals in 0.5 ml PBS (0.1 M, pH 7.4), and the recruitment of neutrophils into the cavity evaluated at the 6 h time point (Getting et al., 1997, J. Pharmacol. Exp. Ther. 283: 123–130). […]
An aliquot (100 μl) of the lavage fluid was then diluted 1:10 in Turk's solution (0.01% crystal violet in 3% acetic acid). The samples were then vortexed and 10 μl of the stained cell solution were placed in a Neubauer haematocymometer and neutrophils numbers counted using a light microscope (Olympus B061). […]
Data are shown for single mice, and also shown as mean±S.E. of (n) mice per group. Statistical differences were determined by ANOVA, plus Bonferroni test A P value<0.05 was taken as significant.

[3] = molecular target: T1, purified recombinant human PARP (Homo sapiens, UniProt P09874); experiment: PARP enzyme assay (IC50); assay type: biochemical; conditions: approximate IC50 values, [3H]NAD
T1 construct: purchased Trevigan (Gaithersburg, Md.)
Description: The reaction is initiated by adding enzyme and incubating the mixture at 25° C. After 2 minutes of incubation, the reaction is terminated by adding 500 microliters of ice cold 30% (w/v) trichloroacetic acid. The precipitate formed is transferred onto a glass fiber filter Packard Unifilter-GF/C) and washed three times with 70% ethanol. After the filter is dried, the radioactivity is determined by scintillation counting.

T1 sequence (P09874 whole entry): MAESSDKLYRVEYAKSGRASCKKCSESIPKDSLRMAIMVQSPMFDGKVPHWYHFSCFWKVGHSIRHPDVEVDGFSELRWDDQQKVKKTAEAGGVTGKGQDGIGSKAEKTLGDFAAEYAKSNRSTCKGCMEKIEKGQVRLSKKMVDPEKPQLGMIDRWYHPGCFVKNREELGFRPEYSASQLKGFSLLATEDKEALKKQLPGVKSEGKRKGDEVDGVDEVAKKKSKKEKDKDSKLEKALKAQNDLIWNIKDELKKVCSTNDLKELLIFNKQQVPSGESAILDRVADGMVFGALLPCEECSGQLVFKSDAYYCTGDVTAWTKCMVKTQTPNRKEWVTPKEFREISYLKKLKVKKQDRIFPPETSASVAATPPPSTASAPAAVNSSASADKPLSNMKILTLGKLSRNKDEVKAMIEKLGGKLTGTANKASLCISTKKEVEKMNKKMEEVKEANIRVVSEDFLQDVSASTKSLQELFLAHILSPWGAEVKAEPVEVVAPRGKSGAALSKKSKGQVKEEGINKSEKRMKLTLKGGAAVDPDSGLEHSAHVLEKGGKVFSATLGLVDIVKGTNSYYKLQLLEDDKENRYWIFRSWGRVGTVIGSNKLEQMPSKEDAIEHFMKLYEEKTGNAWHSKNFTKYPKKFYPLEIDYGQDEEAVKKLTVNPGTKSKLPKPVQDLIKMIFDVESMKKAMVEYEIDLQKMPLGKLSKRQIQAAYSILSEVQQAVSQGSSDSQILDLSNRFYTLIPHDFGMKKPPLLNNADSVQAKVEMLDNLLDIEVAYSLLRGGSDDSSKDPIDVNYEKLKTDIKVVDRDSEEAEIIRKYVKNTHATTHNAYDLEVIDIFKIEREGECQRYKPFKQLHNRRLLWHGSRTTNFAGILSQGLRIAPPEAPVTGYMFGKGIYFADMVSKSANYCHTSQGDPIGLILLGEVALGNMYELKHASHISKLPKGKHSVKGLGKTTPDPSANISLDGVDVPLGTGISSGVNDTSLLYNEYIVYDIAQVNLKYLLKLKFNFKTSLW

Row | SMILES | IC50 ([3]; read-out: IC50) [µM] | further results
1 | O=C1NCCc2c(OCCCCN3CCCCC3)cccc21 [DPQ, 3,4-dihydro-5-[4-(1-piperidinyl)-butoxy]-1(2H)-isoquinolinone] |  | damaged volume (infarct volume) (focal cerebral ischemia; 5 mg/kg i.p. 2 h before and 2 h after MCA occlusion, control 165.2±34.0): 106.7±23.2 mm^3; damaged volume (infarct volume) (focal cerebral ischemia; 10 mg/kg i.p. 2 h before and 2 h after MCA occlusion, control 165.2±34.0): 76.4±16.8 mm^3; damaged volume (infarct volume) (focal cerebral ischemia; 20 mg/kg i.p. 2 h before and 2 h after MCA occlusion, control 165.2±34.0): 110.2±42.0 mm^3; damaged volume (infarct volume) (focal cerebral ischemia; 40 mg/kg i.p. 2 h before and 2 h after MCA occlusion, not significant vs control): 135.6±44.8 mm^3
2 | NC(=O)c1cccc(N)c1 [3-amino-benzamide] |  | reduction in infarct size in the heart ([1]; single injection 10 mg/kg, one minute before occlusion or before reperfusion): 32–42%
3 | O=C1N=Cc2cccc3c2C1c1ccccc1O3 (stereo not shown) [1,11b-dihydrobenzopyrano[4,3,2-de]isoquinolin-1-one] |  | inhibition of cell influx vs. the vehicle group ([2]; 45 mg/kg i.p., 6 h): 55%; Neutrophil Numbers (single mice) ([2]; group C, 45 mg/kg i.p. 1 h prior to 3 mg MSU crystals, 6 h time-point, one value per mouse, 45 mg/kg): 2.4 10^6 per mouse (2×) and 3.0 10^6 per mouse (2×) and 2.7 10^6 per mouse and 2.1 10^6 per mouse (2×) and 5.1 10^6 per mouse; Neutrophils (10^6 per mouse) ([2]; group C, 45 mg/kg i.p., MSU crystals (3 mg), 6 h, mean ± S.E. of (n) mice, vehicle 6.30 ± 0.33): 2.85 ± 0.34 (8)* 10^6 per mouse
4 | Oc1cccc2c(O)nccc12 [1,5-dihydroxyisoquinoline] |  | reduction in infarct size ([1]; 1 mg/kg): 38–48%
5 | COC(=O)C1CN(C(=O)c2cccc(-c3nc4cccc5c4n3CCNC5=O)c2)CCC1=O (stereo not shown) | 0.375 | 
6 | O=C1NCCn2c(CN(Cc3ccccc3)Cc3ccccc3)nc3cccc1c32 | 0.218 | 
7 | Cn1cc(-c2nc3cccc4c3n2CCNC4=O)c2ccccc21 | 0.268 | 
8 | CC(C)(C)OC(=O)[C@@H]1CCCN1Cc1nc2cccc3c2n1CCNC3=O | 0.349 | 
9 | O=C1NCCn2c(/C=C/c3ccccc3)nc3cccc1c32 | 0.071 | 
10 | O=C1NCCn2c(-c3cccc(C(=O)N4CCN(Cc5ccc6c(c5)OCO6)CC4)c3)nc3cccc1c32 | 0.635 | 
11 | O=C1NCCn2c(-c3ccc(-c4ccccc4Cl)o3)nc3cccc1c32 | 0.145 | 
12 | CN1CCN(CC2=NNC(=O)c3cccc4[nH]cc2c34)CC1 | 0.037 | 
13 | CC(C)(C)OC(=O)N1CCN(Cc2nc3cccc4c3n2CCNC4=O)CC1 | 0.266 | 
14 | O=c1[nH]c2ccc(N3C[C@@H]4C[C@H]3CN4)nc2c2ccccc12 |  | IC50 ([3]; IC50 (μM)): 0.042 µM
15 | COc1ccc2c(c1)c(=O)[nH]c1cccnc12 | 4.15 | 
16 | CN(C)CCCOc1ccc(-c2nc3cccc4c3n2CCNC4=O)cc1 | 0.237 | 
17 | CCOC(=O)[C@@H]1C[C@H]1c1nc2cccc3c2n1CCNC3=O | 0.108 | 
18 | O=C1NCC(c2ccccc2)c2c[nH]c3cccc1c23 (stereo not shown) | 0.176 | 
19 | O=C1NCCn2c(-c3cccnc3)nc3cccc1c32 | 0.168 | 

Row | SMILES | IC50 ([3]; read-out: IC50) [µM] | further results
20 | O=C1NCCn2c(CN3CCN(Cc4ccccc4)CC3)nc3cccc1c32 | 2.19 | 
21 | CCN(CC)CC1=NNC(=O)c2cccc3[nH]cc1c23 | 0.034 | 
22 | CN1CCN(Cc2nc3cccc4c3n2CCNC4=O)CC1 | 1.57 | 
23 | O=C1NCCn2c(Cn3ccnc3)nc3cccc1c32 | 0.738 | 
24 | O=C1NCCn2c(COCc3ccccc3)nc3cccc1c32 | 0.434 | 
25 | O=C1NCCn2c(C#Cc3ccccc3)nc3cccc1c32 | 0.044 | 
26 | O=C1NCCn2c(-c3ccc4ccccc4n3)nc3cccc1c32 | 0.299 | 
27 | CN(C)CCN(C)CC1=NNC(=O)c2cccc3[nH]cc1c23 | 0.035 | 
28 | O=C1NCCn2c(-c3cccc(Br)c3)nc3cccc1c32 | 0.106 | 
29 | CCN(CC)CCNC(=O)c1cccc(-c2nc3cccc4c3n2CCNC4=O)c1 | 0.449 | 
30 | CC(C)N1CCN(CC(=O)Nc2cnc3c(c2)[nH]c(=O)c2ccccc23)CC1 | 0.086 | 
31 | O=c1[nH]c2ccc(NCCN3CCOCC3)nc2c2ccccc12 | 0.339 | 
32 | COc1ccc(CC(C)c2nc3cccc4c3n2CCNC4=O)cc1 (stereo not shown) | 0.128 | 
33 | O=C1NCCn2c(CN3CCCc4ccccc43)nc3cccc1c32 | 0.818 | 
34 | CN(C)CC(=O)Nc1cnc2c(c1)[nH]c(=O)c1ccccc12 | 0.165 | 
35 | CN(C)CC(=O)Nc1ccc2[nH]c(=O)c3ccccc3c2n1 | 0.098 | 
36 | O=c1[nH]c2ccc(Cl)nc2c2ccccc12 | 2.1 | 
37 | O=C1NCCn2c(-c3ccco3)nc3cccc1c32 | 0.108 | 
38 | O=C1NN=C(CN2CCN(Cc3ccccc3)CC2)c2c[nH]c3cccc1c23 | 0.141 | 

Row | SMILES | IC50 ([3]; read-out: IC50) [µM] | further results
39 | O=C1NCCc2c[nH]c3cccc1c23 | 0.366 | 
40 | O=C(CN1CCC(N2CCCC2)CC1)Nc1ccc2[nH]c(=O)c3ccccc3c2n1 | 0.142 | 
41 | O=c1[nH]c2cc(Cl)cnc2c2ccccc12 | 0.292 | 
42 | O=C1NN=Cc2c[nH]c3cccc1c23 | 0.018 | 
43 | CC(C)(C)OC(=O)Cn1c(Br)c2c3c(cccc31)C(=O)NN=C2 | 24.1 | 
44 | O=C1NCCn2c(CN(CCc3ccccc3)Cc3ccccc3)nc3cccc1c32 | 10.5 | 
45 | CC(C)(C)OC(=O)N1CCN(C(=O)c2cccc(-c3nc4cccc5c4n3CCNC5=O)c2)CC1 | 0.583 | 
46 | O=C1NCCn2cnc3cccc1c32 | 0.299 | 
47 | CC(=O)OCc1ccc(-c2nc3cccc4c3n2CCNC4=O)o1 | 0.068 | 
48 | O=C1NCCc2c(Br)[nH]c3cccc1c23 | 0.051 | 
49 | COCc1nc2cccc3c2n1CCNC3=O | 0.227 | 
50 | CN(Cc1nc2cccc3c2n1CCNC3=O)c1ccccc1 | 0.28 | 
51 | CN(CCC1CCCN1C)C(=O)c1cccc(-c2nc3cccc4c3n2CCNC4=O)c1 (stereo not shown) | 1.24 | 
52 | CN(Cc1ccccc1)Cc1nc2cccc3c2n1CCNC3=O [drawing 162] |  | IC50 ([3]; IC50 (μM)): 0.088 µM
53 | Nc1ccc(C2CNC(=O)c3cccc4[nH]cc2c34)cc1 (stereo not shown) | 0.172 | 
54 | O=C1NCCn2c(-c3ccc(F)cc3)nc3cccc1c32 | 0.201 | 
55 | Cn1c(-c2ccccc2)c2c3c(cccc31)C(=O)NN=C2 | 0.047 | 
56 | CC(C)N(Cc1nc2cccc3c2n1CCNC3=O)C(C)C | 0.647 | 
